Assays:
[1] = test system: CD4+ T cells; assay: Immunological screening in vitro in CD4+ T cells (flow cytometry); assay type: cell-based, C57BL/6 mice; conditions: 100 nanomolar, 24 h, anti-CD3/CD28, PMA and ionomycin last 6 h; for production of TNFα / percentage of TNFα+ CD4+ T cells: relative to vehicle control (FIG. 3A); for production of IFNγ / percentage of IFNγ+ CD4+ T cells: relative to vehicle control (FIG. 3B)
From the text: Cell culture. Spleens were excised from C57BL/6 mice. Spleens were crushed between the frosted ends of microscope slides and filtered to provide a cellular suspension. Red blood cells were lysed through hypotonic lysis. Remaining cells were washed and filtered. CD4+ T cells were enriched within the suspension using magnetic sorting based negative selection. Cells were collected and plated within 96 well plates coated with anti-CD3/CD28 and cultured in the presence of LABP-72-4, LABP-72-38, LABP-72-56, LABP-72-69 at 0 or 100 nanomolar for 24 h. During the last 6 h of culture, cells were stimulated with phorbol 12-myristate-13-acetate (PMA) and ionomycin.
Immunological analysis. Cells were collected from 96 well plates and stained with a cocktail of antibodies for immunophenotyping by flow cytometry. Culture supernatant was collected and assayed for cytokine concentrations by cytometric bead array. Data was captured on a BD FACS Celesta and analyzed using FACSDiva.

[2] = test system: high fat diet induced obesity model; assay: High fat diet-induced model of obesity; assay type: in vivo, C57BL6 mice; conditions: 10 mg/kg daily oral gavage for 4 weeks
Procedure: Mouse model. C57BL6 mice were challenged with 16 weeks of high fat feeding by ad libitum exposure to rodent diet chow containing 60% kcal from fat. After 12 weeks of challenge, mice were treated daily with LABP-72-38 at 10 mg/kg for 4 weeks. Treatment was delivered by oral gavage. Mice were weighed weekly. Blood glucose levels were measured by glucometer on blood collected from the tail vein. After 16 weeks of diet, livers were excised and weighed. Weights were normalized to the total body weight.

[3] = test system: bleomycin mouse model of pulmonary fibrosis; assay: Bleomycin-induced model of pulmonary fibrosis; assay type: in vivo, C57BL/6 mice; conditions: 50 mg/kg once daily oral gavage from day 7, lungs 2 weeks after bleomycin
Procedure: Bleomycin model. C57BL/6 mice were anesthetized by isoflurane and intratracheally administered 1 mg/kg bleomycin at day 0. LABP-72-38 was prepared within a 0.5% methylcellulose (12-15 cP) solution. Dosage used was 50 mg/kg delivered once daily, by oral gavage beginning 7 days after bleomycin challenge. Lungs were collected 2 weeks after bleomycin challenge.
Flow Cytometry. Lungs were collected into RPMI/FBS buffer containing collagenase (300U/mL) and DNase (50U/mL) for digestion. Tissues were digested for 45 minutes under stirring at 37° C. Resultant cellular suspensions were filtered through 100 μm strainers, and centrifuged (300× g, 8 min). Red blood cells were lysed from the cellular suspensions. Cells were filtered and washed in fresh RPMI. Cells were labeled with mixtures of extracellular (CD45, CD3, CD4, CD8, CD19, NK1.1, F4/80, CD11b, Gr1) and intracellular (IL21) antibodies in a sequential live staining in 96-well plates. Data was acquired using a FACS Celesta flow cytometer with FACSDiva software.

[4] = test system: OVA-induced model of asthma; assay: OVA-induced model of asthma; assay type: in vivo, BALB/c mice; conditions: 50 mg/kg daily by oral gavage, days 14-17, day 18
Procedure: OVA-induced model. BALB/c mice were immunized with 10 μg of ovalbumin (OVA) in aluminum hydroxide gel by intraperitoneal injection on day 0 and 7 of the experiment. Mice were then exposed to OVA (8% w/v) by aerosolization for 25 minutes daily between days 14 and 17. Treatment with LABP-72-38 (50 mg/kg) or vehicle control occurred daily between days 14 and 17 by oral gavage. An unchallenged negative control group was included for comparison. Dosage was calculated based off mean body weights. Immunological analysis. Lungs were collected on day 18 (OVA) or day 27 (HDM). Lung tissue was minced and digested in RPMI supplemented with FBS, HEPES, and calcium chloride containing 300 U/mL collagenase and 50 U/mL DNase for 45 minutes at 37° C. After filtration, red blood cells were lysed. Cells were labeled with mixtures of extracellular (CD45, CD3, CD4, CD8, MHCII, CD11b, CD11c, SiglecF, Ly6C, Ly6G) antibodies in a sequential live staining in 96-well plates in preparation for flow cytometry. Data was captured on a BD FACS Celesta and analyzed using FACSDiva.

[5] = test system: house dust mite model of asthma; assay: House dust mite (HDM)-induced model of asthma; assay type: in vivo, BALB/c mice; conditions: 20 mg/kg daily intranasal, 3 weeks of house dust mite challenge
Procedure: HDM-induced model. BALB/c mice were sensitized to house dust mite with 25 μg administered daily by intranasal instillation for five days. Challenge with house dust mite (25 μg/d) occurred for 5 consecutive days for the following three weeks. Treatment with LABP-72-38 (20 mg/kg) or vehicle control occurred daily during this three-week period. An unchallenged negative control group was included for comparison. Immunological analysis. Lungs were collected on day 18 (OVA) or day 27 (HDM). Lung tissue was minced and digested in RPMI supplemented with FBS, HEPES, and calcium chloride containing 300 U/mL collagenase and 50 U/mL DNase for 45 minutes at 37° C. After filtration, red blood cells were lysed. Cells were labeled with mixtures of extracellular (CD45, CD3, CD4, CD8, MHCII, CD11b, CD11c, SiglecF, Ly6C, Ly6G) antibodies in a sequential live staining in 96-well plates in preparation for flow cytometry. Data was captured on a BD FACS Celesta and analyzed using FACSDiva.

Row | Compound | production of TNFα / percentage of TNFα+ CD4+ T cells [1] | production of IFNγ / percentage of IFNγ+ CD4+ T cells [1] | blood glucose level ([2]; 16 weeks high fat diet (FIG. 7A)) | body weight normalized liver weight ([2]; 16 weeks high fat diet, compared to vehicle (FIG. 7B)) | proportions of neutrophils in the lungs ([3]; relative to vehicle (FIG. 6A)) | proportions of IL21+ cells in the lungs ([3]; relative to vehicle (FIG. 6B)) | percentage of eosinophils within the lung ([4]; relative to vehicle control (FIG. 4A)) | concentrations of anti-OVA IgE antibodies in the serum ([4]; relative to vehicle control (FIG. 4B)) | percentage of eosinophils within the lung ([5]; relative to vehicle control (FIG. 5A)) | percentage of neutrophils within the lung ([5]; relative to vehicle control (FIG. 5B))
1 | O=C(O)Cc1cncc(N2CCc3nn(-c4cc(F)cc(F)c4)cc3C2=O)c1 [LABP-72-4] | significantly reducing | significantly reducing | – | – | – | – | – | – | – | –
2 | O=C(O)Cc1cncc(N2CCc3nn(-c4cc(F)cc(F)c4)cc3C2=O)c1 [LABP-72-38, 2-(5-(2-(3,5-difluorophenyl)-4-oxo-2,4,6,7-tetrahydro-5H-pyrazolo[4,3-c]pyridin-5-yl)pyridin-3-yl)acetic acid] | – | – | reduced | reduced | decreased | decreased | reduced | reducing | reduced | reduced
3 | O=C(O)Cc1ccc(N2CCc3c(cnn3-c3cc(F)cc(F)c3)C2=O)cn1 [LABP-72-69, 2-(5-(1-(3,5-difluorophenyl)-4-oxo-1,4,6,7-tetrahydro-5H-pyrazolo[4,3-c]pyridin-5-yl)pyridin-2-yl)acetic acid] | significantly reducing | significantly reducing | – | – | – | – | – | – | – | –
